# Reference: US6358883B1, “Pesticidal and parasiticidal use of 1-aryl-1-(substituted thio, sulfinyl and sulfonyl)-2-nitroethane compounds” (American Cyanamid Company, priority 1998, dated 2002)
# Experiments:
# Assay type in all cases: in vivo
# [1] = test system: M. incognita (Root Knot Nematode) larvae; assay: Evaluation of test compounds against M. incognita larvae in microtiter plate wells (movement score); settings: larvae scored for movement after 20-24 hours; note: key: A score of '9' indicates inactive worms with a straight, sticklike morphology; A score of '8' indicates inactive worms with a limp, curled or curved morphology; A score of '7' indicates dead/paralyzed worms after 72 hours
# How it was run: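 Newly emerged M. incognita larvae in S Medium (buffered salt solution), 50-65 worms per well, exposed to test compounds in sealed microtiter wells. Movement scored after 20-24 h incubation; wells with obviously dead/paralyzed larvae scored positive. A score of "7" denotes dead/paralyzed worms after […].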
# [2] = test system: Spodoptera eridania, 2nd instar larvae, southern armyworm (SAW); assay: Southern armyworm (SAW) leaf dip test; set-up: key: 0 = no effect; 1 = 10-25% kill; 2 = 26-35% kill; 3 = 36-45% kill; 4 = 46-55% kill; 5 = 56-65% kill; 6 = 66-75% kill; 7 = 76-85% kill; 8 = 86-99% kill; 9 = 100% kill
# How it was run: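 Compound is dissolved at 10,000 ppm in 35% acetone/water, then diluted with water. Lima bean leaves are dipped for 3 seconds, dried and placed with ten 2nd instar larvae on damp filter paper. Mortality, reduced feeding and molting interference are scored at 5 days.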
# [3] = test system: Diabrotica virgifera virgifera Leconte, 2nd instar western corn rootworm (WCR); assay: Western corn rootworm (WCR) soil test; set-up: key: 0 = no effect; 1 = 10-25% kill; 2 = 26-35% kill; 3 = 36-45% kill; 4 = 46-55% kill; 5 = 56-65% kill; 6 = 66-75% kill; 7 = 76-85% kill; 8 = 86-99% kill; 9 = 100% kill
# How it was run: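 Compound in 35% acetone/water applied to talc at 1.25 mg active ingredient per jar (about 50 kg/ha), solvent evaporated, then mixed with millet seed and moist soil. Ten 2nd-instar larvae per jar; mortality counted after 5 days, missing larvae scored dead.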
# [4] = test system: Tetranychus urticae (OP-resistant strain), 2-spotted spider mite (TSM); assay: 2-spotted spider mite (TSM) plant dip test; set-up: key: 0 = no effect; 1 = 10-25% kill; 2 = 26-35% kill; 3 = 36-45% kill; 4 = 46-55% kill; 5 = 56-65% kill; 6 = 66-75% kill; 7 = 76-85% kill; 8 = 86-99% kill; 9 = 100% kill; settings: mortality after 2 days
# How it was run: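 OP-resistant mites (~100 per leaf) were transferred onto Sieva lima bean primary leaves about 2 h before treatment. Infested plants were dipped for 3 s in compound from a 10,000 ppm stock in 35% acetone/water, diluted with water. Mortality was counted after 2 days.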
# [5] = test system: Aphis gossypii, cotton aphid (CA); assay: Cotton aphid (CA) cotyledon dip test; set-up: key: 0 = no effect; 1 = 10-25% kill; 2 = 26-35% kill; 3 = 36-45% kill; 4 = 46-55% kill; 5 = 56-65% kill; 6 = 66-75% kill; 7 = 76-85% kill; 8 = 86-99% kill; 9 = 100% kill; settings: mortality after 5 days
# How it was run: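 Cotyledon-stage cotton plants infested overnight via a heavily infested leaf, then dipped in test solution (compound in 35% acetone/water, diluted with water) and dried. Mortality counted after 5 days.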
# [6] = test system: Spodoptera eridania, eggs-southern armyworm (SAW-Eggs); assay: Southern armyworm eggs (SAW-Eggs) treated diet test; set-up: key: 0 = no effect; 1 = 10-25% kill; 2 = 26-35% kill; 3 = 36-45% kill; 4 = 46-55% kill; 5 = 56-65% kill; 6 = 66-75% kill; 7 = 76-85% kill; 8 = 86-99% kill; 9 = 100% kill; settings: mortality after 7 days
# Description: (§1) Test solutions are prepared by dissolving the test compound in a 35% acetone in water mixture to give a concentration of 10,000 ppm. Subsequent dilutions are made with water as needed. Spodoptera eridania, Eggs-southern Armyworm and Diabrotica undecimpunctata howardi, Eggs-southern Corn Rootworm (SAW-Eggs) and (SCR-Eggs) Wells containing artificial diet are treated with the test solutions and dried. The appropriate insect eggs are then placed in the wells. The wells are covered with vented, adhesive, clear plastic covers. After 7 days, mortality counts are made. [table]
# [7] = test system: Diabrotica undecimpunctata howardi, eggs-southern corn rootworm (SCR-Eggs); assay: Southern corn rootworm eggs (SCR-Eggs) treated diet test; set-up: key: 0 = no effect; 1 = 10-25% kill; 2 = 26-35% kill; 3 = 36-45% kill; 4 = 46-55% kill; 5 = 56-65% kill; 6 = 66-75% kill; 7 = 76-85% kill; 8 = 86-99% kill; 9 = 100% kill; settings: mortality after 7 days
# Description: as §1
SMILES,M. incognita (150 ppm) score [1],SAW (300 ppm) rating [2],WCR (50 ppm) rating [3],TSM (300 ppm) rating [4],CA (300 ppm) rating [5],SAW Eggs (300 ppm) rating [6],SCR Eggs (1000 ppm) rating [7]
COC(=O)CSC(C[N+](=O)[O-])c1ccco1 (stereo not drawn) [Example 197],9,0,0,0,5 (5 = 56-65% kill),9 (9 = 100% kill),0
CCCOC(=O)CSC(C[N+](=O)[O-])c1ccco1 (stereo not drawn) [Example 199],9,0,8 (8 = 86-99% kill),0,0,9 (9 = 100% kill),0
CCCSC(C[N+](=O)[O-])c1ccco1 (stereo not drawn) [Example 201],0,0,7 (7 = 76-85% kill),0,0,0,0
COC(=O)CSC(C[N+](=O)[O-])c1cccc([N+](=O)[O-])c1 (stereo not drawn) [Example 138],0,0,0,0,0,0,0
O=C(CSC(C[N+](=O)[O-])c1cccs1)OCc1ccccc1 (stereo not drawn) [Example 185],9,0,0,0,0,0,0
CCOC(=O)CSC(C[N+](=O)[O-])c1ccco1 (stereo not drawn) [Example 198],9,0,7 (7 = 76-85% kill),0,0,9 (9 = 100% kill),0
CCOC(=O)CSC(C[N+](=O)[O-])c1cc(Br)cs1 (stereo not drawn) [Example 192],,0,0,0,0,0,0
O=C(O)CSC(C[N+](=O)[O-])c1cc(Br)cs1 (stereo not drawn) [Example 190],,0,0,0,0,0,0
CCCCOC(=O)CSC(C[N+](=O)[O-])c1cc(Br)cs1 (stereo not drawn) [Example 194],,0,0,0,0,0,0
O=[N+]([O-])CC(SCc1ccccc1)c1cccs1 (stereo not drawn) [Example 188],9,0,3 (3 = 36-45% kill),0,0,0,0
COC(=O)CSC(C[N+](=O)[O-])c1cc(Br)cs1 (stereo not drawn) [Example 191],,0,0,0,0,0,0
CCOC(=O)CSC(C[N+](=O)[O-])c1cccs1 (stereo not drawn) [Example 183],9,0,0,0,0,0,0
O=C(O)CSC(C[N+](=O)[O-])c1cccs1 (stereo not drawn) [Example 181],9,0,0,0,0,9 (9 = 100% kill),0
COC(=O)CSC(C[N+](=O)[O-])c1cccs1 (stereo not drawn) [Example 182],9,0,0,0,0,0,0
CCCOC(=O)CSC(C[N+](=O)[O-])c1cc(Br)cs1 (stereo not drawn) [Example 193],,0,0,0,0,0,0
O=[N+]([O-])CC(SCc1ccccc1)c1cc(Br)cs1 (stereo not drawn) [Example 195],,0,0,0,0,0,0
CCCCOC(=O)CSC(C[N+](=O)[O-])c1cccs1 (stereo not drawn) [Example 184],9,0,0,0,0,9 (9 = 100% kill),0
C=CCSC(C[N+](=O)[O-])c1ccco1 (stereo not drawn) [Example 202],0,0,9 (9 = 100% kill),0,0,9 (9 = 100% kill),0
O=C(O)CSC(C[N+](=O)[O-])c1ccco1 (stereo not drawn) [Example 196],9,0,9 (9 = 100% kill),0,0,0,0
CCCSC(C[N+](=O)[O-])c1cccs1 (stereo not drawn) [Example 186],0,4 (4 = 46-55% kill),4 (4 = 46-55% kill),0,0,0,0
CCCCOC(=O)CSC(C[N+](=O)[O-])c1ccco1 (stereo not drawn) [Example 200],9,0,4 (4 = 46-55% kill),0,0,9 (9 = 100% kill),0
C=CCSC(C[N+](=O)[O-])c1cccs1 (stereo not drawn) [Example 187],9,0,0,0,0,0,0
O=C(O)CSC(C[N+](=O)[O-])c1cccnc1 (stereo not drawn) [Example 179],9,0,0,0,0,0,0
CCCOC(=O)CSC(C[N+](=O)[O-])c1cccs1 (stereo not drawn) [Example 189],9,0,0,0,0,0,0
